Experimental findings from patent EP1073639B1, “QUINOLINE DERIVATIVES” (Active Biotech AB, priority 1998, dated 1999) are described below.

Marks after values point to notes of the source that are not given here.

Type in all cases: in vivo
One series can be described thus: Clearance in dogs. The settings on record: higher than roquinimex.
The test system of another series is female rats. Briefly: Teratogenic effects in the rat (embryotoxicity, external malformations). Particulars: for % malformed foetuses: rat.
For a further series, the system named is SJL/N female mice. Briefly: Acute experimental autoimmune encephalomyelitis (aEAE). Particulars: for % aEAE Inhibition: mice.
In a further series the test system is DBA/1 male mice. The series can be described thus: Collagen induced arthritis (type II collagen). The settings on record: dose 5 mg/kg p.o.; for Mean score day 35: day 35, arthritic score. How it is done:
Collagen induced arthritis
DBA/1 male mice between 8 to 10 weeks of age were used for the experiments. On day 0 the mice were immunized intradermally at the base of the tail with bovine type II collagen (100 µg/mouse) in Freund's complete adjuvant. The treatment was given per os daily on days 3 to 7, 10 to 14, 17 to 21, 24 to 28 and 31 to 35. Fifteen days after immunization mice were inspected for signs of arthritis. The animals were inspected three times a week. Every second or third day individual paws of the arthritic animals were scored by a scale from 0-4 (0 = no arthritis, 1 = arthritis in one of the interphalangeal, metatarsophalangeal or intercarpal joints, 2 = two arthritic joints, 3 = three arthritic joints, 4 = as in 3 but with more severe redness and swelling of the paw). The score for each paw was added to give a maximal attainable score of 16 for each mouse.

For a further series, the system named is beagle dogs. The series can be described thus: Beagle Pain Syndrome (BPS). The settings on record: result in words. The procedure:
Beagle Pain Syndrome (BPS)
The compounds were administrated intravenously to beagle dogs. The dosage was given for five consecutive days. The dogs were evaluated for clinical and laboratory signs of the pain syndrome, e.g., fever, increased erythrocyte sedimentation rate (ESR), […] (AP), induction of acute phase proteins and vasculitis.

With `Cn1c(=O)c(C(=O)Nc2ccccc2)c(O)c2ccccc21` [A], in “Clearance in dogs”, the “clearance (Cl) in comparison with roquinimex” value was 800 fold.
`CCN(C(=O)c1c(O)c2c(Cl)cccc2n(C)c1=O)c1ccccc1` [Compound B, N-ethyl-N-phenyl-1,2-dihydro-4-hydroxy-5-chloro-1-methyl-2-oxo-quinoline-3-carboxamide]: the “% malformed foetuses” value in the series on female rats (6 mg/kg, route s.c.) is 0^a) %; in the series on female rats (30 mg/kg, route s.c.) it was 1^a) %. For the same compound, the “% aEAE Inhibition” value with SJL/N female mice (0.04 mg/kg p.o.) turned out to be 60%; with SJL/N female mice (0.2 mg/kg p.o.), 74%; in the series with SJL/N female mice (1 mg/kg p.o.), 98%; in the series with SJL/N female mice (5 mg/kg p.o.), 96%.
In the case of `CCN(C(=O)c1c(O)c2c(OC)cccc2n(C)c1=O)c1ccccc1` [Compound C, N-ethyl-N-phenyl-1,2-dihydro-4-hydroxy-5-methoxy-1-methyl-2-oxo-quinoline-3-carboxamide], the “% aEAE Inhibition” value in the series with SJL/N female mice (0.04 mg/kg p.o.) is listed as 48%; with SJL/N female mice (0.2 mg/kg p.o.) it was 71%; in the series with SJL/N female mice (1 mg/kg p.o.), 73%; in the series with SJL/N female mice (5 mg/kg p.o.), 90%.
For the compound `CCN(C(=O)c1c(O)c2ccccc2n(C)c1=O)c1ccccc1` [Compound F, N-ethyl-N-phenyl-1,2-dihydro-4-hydroxy-1-methyl-2-oxo-quinoline-3-carboxamide, reference compound], in the series with SJL/N female mice (5 mg/kg p.o.), the “% aEAE Inhibition” value is reported as 63%.
For the compound `CN(C(=O)c1c(O)c2c(Cl)cccc2n(C)c1=O)c1ccccc1` [Compound G, N-methyl-N-phenyl-1,2-dihydro-4-hydroxy-5-chloro-1-methyl-2-oxo-quinoline-3-carboxamide], the “% malformed foetuses” value with female rats (6 mg/kg, route s.c.) is on record as 37^a) %.
As for `CCN(C(=O)c1c(O)c2c(Br)cccc2n(C)c1=O)c1ccccc1` [D, N-ethyl-N-phenyl-1,2-dihydro-4-hydroxy-5-bromo-1-methyl-2-oxo-quinoline-3-carboxamide], in the series with DBA/1 male mice, the “Incidence (%) day 35” value is 30% and the “Mean score day 35” value came out at 0.4.
The matching figures for `CCN(C(=O)c1c(O)c2c3c(ccc2n(C)c1=O)OCO3)c1ccccc1` [E, N-ethyl-N-phenyl-1,2-dihydro-4-hydroxy-5,6-methylenedioxy-1-methyl-2-oxo-quinoline-3-carboxamide]: 10% and 0.1.
In the case of `CN(C(=O)c1c(O)c2ccccc2n(C)c1=O)c1ccccc1` [Roquinimex, N-methyl-N-phenyl-1,2-dihydro-4-hydroxy-1-methyl-2-oxo-quinoline-3-carboxamide, reference compound], the “% malformed foetuses” value in the series on female rats (10 mg/kg, route p.o.) is on record as 9^b) %; in the series on female rats (30 mg/kg, route p.o.), 30^b) %. Moreover, in the series on female rats (result in words), the “teratogenic effect in the rat” value is reported as “teratogenic”. The “Incidence (%) day 35” value in the series with DBA/1 male mice was found to be 50%. Besides, in the series with DBA/1 male mice, the “Mean score day 35” value is 1.7. Besides, the “Beagle Pain Syndrome (BPS)” value with beagle dogs was “induce the Beagle Pain Syndrome”. Moreover, the “% aEAE Inhibition” value in the series on SJL/N female mice (0.2 mg/kg p.o.) is 35%; with SJL/N female mice (1 mg/kg p.o.), 40%; in the series with SJL/N female mice (5 mg/kg p.o.), 69%. Further, in the series with SJL/N female mice (5 mg/kg, treatment control), the “inhibition of EAE in mice” value is 70%.
